Assay results taken from ChEMBL document CHEMBL3044740, “Syntheses and evaluation of 2,5-disubstituted 4-thiazolidinone analogues as antimicrobial agents” (2012).
Calls of active or inactive are those of the source. No cut-off for these calls is given here.

How the values were obtained:
Assay type in all cases: functional
Candida albicans [1] = experiment: Antifungal activity against Candida albicans MTCC 227 at 100 ug/ml by cup-plate method; conditions: for zone of inhibition at 100 µg/mL: read-out: DIZ
Staphylococcus aureus [2] = experiment: Antibacterial activity against Staphylococcus aureus MTCC 96 at 100 ug/ml by cup-plate method; conditions: read-out: DIZ
Pseudomonas aeruginosa [3] = experiment: Antibacterial activity against Pseudomonas aeruginosa MTCC 2453 at 200 ug/ml by cup-plate method; conditions: read-out: DIZ
Pseudomonas aeruginosa [4] = experiment: Antibacterial activity against Pseudomonas aeruginosa MTCC 2453 at 300 ug/ml by cup-plate method; conditions: read-out: DIZ
Escherichia coli [5] = experiment: Antibacterial activity against Escherichia coli MTCC 739 at 300 ug/ml by cup-plate method; conditions: read-out: DIZ
Staphylococcus aureus [6] = experiment: Antibacterial activity against Staphylococcus aureus MTCC 96 at 50 ug/ml by cup-plate method; conditions: read-out: DIZ
Staphylococcus aureus [7] = experiment: Antibacterial activity against Staphylococcus aureus MTCC 96 at 200 ug/ml by cup-plate method; conditions: read-out: DIZ
Bacillus subtilis [8] = experiment: Antibacterial activity against Bacillus subtilis MTCC 121 at 100 ug/ml by cup plate method; conditions: read-out: DIZ
Escherichia coli [9] = experiment: Antibacterial activity against Escherichia coli MTCC 739 at 100 ug/ml by cup-plate method; conditions: read-out: DIZ
Escherichia coli [10] = experiment: Antibacterial activity against Escherichia coli MTCC 739 at 50 ug/ml by cup-plate method; conditions: read-out: DIZ
Bacillus subtilis [11] = experiment: Antibacterial activity against Bacillus subtilis MTCC 121 at 300 ug/ml by cup plate method; conditions: read-out: DIZ
Bacillus subtilis [12] = experiment: Antibacterial activity against Bacillus subtilis MTCC 121 at 50 ug/ml by cup plate method; conditions: read-out: DIZ
Candida albicans [13] = experiment: Antifungal activity against Candida albicans MTCC 227 at 50 ug/ml by cup-plate method; conditions: for zone of inhibition at 50 µg/mL: read-out: DIZ
Pseudomonas aeruginosa [14] = experiment: Antibacterial activity against Pseudomonas aeruginosa MTCC 2453 at 50 ug/ml by cup-plate method; conditions: read-out: DIZ
Staphylococcus aureus [15] = experiment: Antibacterial activity against Staphylococcus aureus MTCC 96 at 300 ug/ml by cup-plate method; conditions: read-out: DIZ
Escherichia coli [16] = experiment: Antibacterial activity against Escherichia coli MTCC 739 at 200 ug/ml by cup-plate method; conditions: read-out: DIZ
Candida albicans [17] = experiment: Antifungal activity against Candida albicans MTCC 227 at 300 ug/ml by cup-plate method; conditions: for zone of inhibition at 300 µg/mL: read-out: DIZ
Pseudomonas aeruginosa [18] = experiment: Antibacterial activity against Pseudomonas aeruginosa MTCC 2453 at 100 ug/ml by cup-plate method; conditions: read-out: DIZ
Candida albicans [19] = experiment: Antifungal activity against Candida albicans MTCC 227 at 200 ug/ml by cup-plate method; conditions: for zone of inhibition at 200 µg/mL: read-out: DIZ
Bacillus subtilis [20] = experiment: Antibacterial activity against Bacillus subtilis MTCC 121 at 200 ug/ml by cup plate method; conditions: read-out: DIZ

Structure (SMILES) | zone of inhibition at 100 µg/mL (Candida albicans [1]) [mm] | zone of inhibition at 100 µg/mL (Staphylococcus aureus [2]) [mm] | zone of inhibition at 200 µg/mL (Pseudomonas aeruginosa [3]) [mm] | zone of inhibition at 300 µg/mL (Pseudomonas aeruginosa [4]) [mm] | zone of inhibition at 300 µg/mL (Escherichia coli [5]) [mm] | zone of inhibition at 50 µg/mL (Staphylococcus aureus [6]) [mm] | zone of inhibition at 200 µg/mL (Staphylococcus aureus [7]) [mm] | zone of inhibition at 100 µg/mL (Bacillus subtilis [8]) [mm] | zone of inhibition at 100 µg/mL (Escherichia coli [9]) [mm] | zone of inhibition at 50 µg/mL (Escherichia coli [10]) [mm] | zone of inhibition at 300 µg/mL (Bacillus subtilis [11]) [mm] | zone of inhibition at 50 µg/mL (Bacillus subtilis [12]) [mm] | zone of inhibition at 50 µg/mL (Candida albicans [13]) [mm] | zone of inhibition at 50 µg/mL (Pseudomonas aeruginosa [14]) [mm] | zone of inhibition at 300 µg/mL (Staphylococcus aureus [15]) [mm] | zone of inhibition at 200 µg/mL (Escherichia coli [16]) [mm] | zone of inhibition at 300 µg/mL (Candida albicans [17]) [mm] | zone of inhibition at 100 µg/mL (Pseudomonas aeruginosa [18]) [mm] | zone of inhibition at 200 µg/mL (Candida albicans [19]) [mm] | zone of inhibition at 200 µg/mL (Bacillus subtilis [20]) [mm] | further results
O=C1N/C(=N\c2ccccc2[N+](=O)[O-])S/C1=C\c1ccccc1[N+](=O)[O-] | 16 | 10 | 13 | 13 | 11 | 10 | 13 | 9 | 8 | 8 | 10 | 9 | 10 | 10 | 14 | 10 | 26 | 10 | 23 | 10 | –
O=C1N/C(=N\c2ccccc2[N+](=O)[O-])S/C1=C\c1ccccc1Cl | 16 | 12 | 12 | 15 | 12 | 11 | 14 | 13 | 10 | 9 | 18 | 11 | 10 | 8 | 15 | 10 | 19 | 10 | 18 | 15 | –
O=C1N/C(=N\c2ccccc2[N+](=O)[O-])S/C1=C\c1ccc(Cl)cc1 | – | 15 | 17 | 18 | 11 | 14 | 16 | 14 | 11 | 10 | 16 | 13 | – | 14 | 18 | 11 | – | 15 | – | 15 | diameter of the inhibition zone (DIZ) (Candida albicans [1]): inactive; diameter of the inhibition zone (DIZ) (Candida albicans [13]): inactive; diameter of the inhibition zone (DIZ) (Candida albicans [17]): inactive; diameter of the inhibition zone (DIZ) (Candida albicans [19]): inactive
O=C1N/C(=N\c2ccccc2[N+](=O)[O-])S/C1=C\c1cccc([N+](=O)[O-])c1 | 12 | 10 | 15 | 16 | 15 | 8 | 14 | 15 | 8 | 10 | 22 | 7 | 10 | 10 | 16 | 13 | 16 | 11 | 14 | 20 | –
